# Test results reported in patent US9060519B2, “Insecticidally active pyridyl-thiazole and pyridyl-thiadiazole derivatives” (Syngenta Participations AG, priority 2011, dated 2015).
# Test system: not given
# Experiment: not given
# Conditions: not given
row,melting point,SMILES
1,152 to 154 °C,C#CCOc1ccc(O/N=C(\C)c2sc(-c3cccnc3)nc2C)nn1 [Compound 1.002]
2,109 to 111 °C,COc1cc(OC)nc(O/N=C(/c2sc(-c3cccnc3)nc2Cl)C(F)(F)F)n1 [Compound 1.043]
3,126 to 128 °C,C/C(=N\Oc1ncccc1Cl)c1sc(-c2cccnc2)nc1C [Compound 1.007]
4,149 to 151 °C,CSc1cc(F)cnc1O/N=C(\C)c1sc(-c2cccnc2)nc1C [Compound 1.055]
5,169 to 171 °C,COc1ccc(Cl)c(-c2ccc(O/N=C(\C)c3sc(-c4cccnc4)nc3C)nn2)c1 [Compound 1.003]
6,165 to 166 °C,C/C(=N\Oc1ncc(C(F)(F)F)cn1)c1sc(-c2cccnc2)nc1C [Compound 1.015]
7,179 to 181 °C,C/C(=N\Oc1ccc(C)nn1)c1sc(-c2cccnc2)nc1C [Compound 1.004]
8,127 to 130 °C,Clc1nc(-c2cccnc2)sc1/C(=N/Oc1ncccn1)C1CC1 [Compound 1.044]
9,174 to 176 °C,C/C(=N\Oc1ncc([N+](=O)[O-])cn1)c1sc(-c2cccnc2)nc1C [Compound 1.018]
10,200 to 202 °C,C/C(=N\Oc1ccc2nnc(C)n2n1)c1sc(-c2cccnc2)nc1C [Compound 1.001]
11,167 to 169 °C,COc1ccc(O/N=C(\C)c2sc(-c3cccnc3)nc2C)nn1 [Compound 1.005]
12,53 to 55 °C,Cc1cc(C)nc(O/N=C(/c2sc(-c3cccnc3)nc2Cl)C2CC2)n1 [Compound 1.045]

# Test system: Myzus persicae (green peach aphid)
# Experiment: Activity against Myzus persicae (mixed population, feeding/residual contact activity, preventive)
# Assay type: in vivo
# Conditions: foliar, 144 h, sunflower leaf discs sprayed, aphids of mixed ages, mortality after 6 days
# Protocol: Activity against Myzus persicae (Green Peach Aphid)
# (Mixed Population, Feeding/Residual Contact Activity, Preventive)
# Sunflower leaf discs were placed on agar in a 24-well microtiter plate and sprayed with test solutions. After drying, the leaf discs were infested with an aphid population of mixed ages. After an incubation period of 6 days, samples were checked for mortality.
row,SMILES,pest or weed control at 200 ppm
1,COCc1cc(C)nc(O/N=C(\C)c2sc(-c3cccnc3)nc2C)n1 [Compound 1.032],> 80%
2,C/C(=N\Oc1nccc(C)n1)c1sc(-c2cccnc2)nc1C [Compound 1.029],> 80%
3,"C/C(=N\Oc1ncccn1)c1cnc(-c2cccnc2)s1 [Compound 1.041, 1-[2-(3-pyridyl)thiazol-5-yl]-N-pyrimidin-2-yloxy-ethanimine]",> 80%
4,"COc1cc(OC)nc(O/N=C(\C)c2sc(-c3cccnc3)nc2Cl)n1 [Compound 1.058, 1-[4-chloro-2-(3-pyridyl)thiazol-5-yl]-N-(4,6-dimethoxypyrimidin-2-yl)oxy-ethanimine]",> 80%
5,COc1nc(OC)nc(O/N=C(\C)c2sc(-c3cccnc3)nc2C)n1 [Compound 1.060],> 80%
6,CC/C(=N\Oc1ncccn1)c1sc(-c2cccnc2)nc1Cl [Compound 1.048],> 80%
7,COc1cnc(O/N=C(\C)c2sc(-c3cccnc3)nc2C)nc1 [Compound 1.014],> 80%
8,C/C(=N\Oc1ncccc1SC(C)C)c1sc(-c2cccnc2)nc1C [Compound 1.056],> 80%
9,CC/C(=N\Oc1nc(OC)cc(OC)n1)c1sc(-c2cccnc2)nc1Cl [Compound 1.049],> 80%
10,C/C(=N\Oc1ncccn1)c1sc(-c2cccnc2)nc1Cl [Compound 1.050],> 80%
11,C/C(=N\Oc1nc(C)cc(C)n1)c1sc(-c2cccnc2)nc1C [Compound 1.010],> 80%
12,COc1cc(OC)nc(O/N=C(\C)c2sc(-c3cccnc3)nc2C)n1 [Compound 1.009],> 80%
13,CC/C(=N\Oc1nc(C)cc(C)n1)c1sc(-c2cccnc2)nc1Cl [Compound 1.047],> 80%
14,C/C(=N\Oc1cc(Cl)cnc1Cl)c1sc(-c2cccnc2)nc1C [Compound 1.008],> 80%
15,C/C(=N\Oc1ncccn1)c1sc(-c2cccnc2)nc1C [Compound 1.013],> 80%
16,C/C(=N\Oc1nc(C)cc(C)n1)c1sc(-c2cccnc2)nc1Cl [Compound 1.057],> 80%

# Test system: Plutella xylostella (diamond back moth)
# Experiment: Plutella xylostella (larvicide, feeding/residual contact activity, preventive)
# Assay type: in vivo
# Conditions: 200 ppm; artificial diet in MTP, L2 larvae; larval mortality, antifeedant, growth regulation after 5 days
# Protocol: Plutella xylostella (Diamond Back Moth) (Larvicide, Feeding/Residual Contact Activity, Preventive) 24-well microtiter plate (MTP) with artificial diet was treated with test solutions by pipetting. After drying, the MTP's were infested with larvae (L2)(10-15 per well). After an incubation period of 5 days, samples were checked for larval mortality, antifeedant and growth regulation.
row,SMILES,activity
1,C/C(=N\Oc1ccc(C#N)cn1)c1sc(-c2cccnc2)nc1C [Compound 1.012],over 80%
